Results: ChEMBL document CHEMBL1133637, “Identification of MK-944a: a second clinical candidate from the hydroxylaminepentanamide isostere series of HIV protease inhibitors” (J Med Chem, 2000)

Legend:
[1] = biological target: Human immunodeficiency virus type 1 protease (Human immunodeficiency virus 1) (UniProt Q72874); assay: Inhibition of HIV-1 protease in vitro.
[2] = Partition coefficient (logP); conditions: octanol/water
[3] = biological target: T1, Human immunodeficiency virus type 1 protease (Human immunodeficiency virus 1, UniProt Q72874)
[4] = Maximal plasma concentration in dogs at 10mg/kg oral dose 0.05M citric acid; conditions: dog
[5] = biological target: T1, Human immunodeficiency virus type 1 protease; assay: Concentration required for 50% inhibition of Protease
[6] = biological target: Human immunodeficiency virus type 1 protease (Human immunodeficiency virus 1) (UniProt Q72874); assay: Concentration required for 95% inhibition of Protease
in vivo = conditions: dog, po, 10 mg/kg
[7] = biological target: Human immunodeficiency virus type 1 protease (Human immunodeficiency virus 1) (UniProt Q72874); assay: Concentration required for 95%Inhibition of Protease

Row | Compound | IC95 [1] | IC50 [3] | Cmax [4] | also measured
1 | CCOc1ccc(CN2CCN(C[C@@H](O)C[C@@H](Cc3ccccc3)C(=O)NC3c4ccccc4C[C@H]3O)[C@H](C(=O)NC(C)(C)C)C2)cn1 (stereo not given in full) | 100 nM | 3.4 nM | 300 nM | logP [2]: 3.62
2 | Cc1cc2oc(CN3CCN(C[C@@H](O)C[C@@H](Cc4ccccc4)C(=O)NC4c5ccccc5C[C@H]4O)[C@H](C(=O)NC(C)(C)C)C3)cc2cn1 (stereo not given in full) | 12 nM | 0.19 nM | – | –
3 | CC(C)(C)NC(=O)[C@@H]1CN(C(=O)c2cnc3occc3c2)CCN1C[C@@H](O)C[C@@H](Cc1ccccc1)C(=O)NC1c2ccccc2C[C@H]1O (stereo not given in full) | – | – | 130 nM | IC50 [5]: 1.7 nM; IC95 [6]: 100 nM
4 | CC(C)(C)NC(=O)C1CN(Cc2cc3cccnc3s2)CCN1CC(O)CC(Cc1ccccc1)C(=O)NC1c2ccccc2CC1O (stereo not given) | 12.5 nM | 0.11 nM | – | –
5 | CC(C)(C)NC(=O)[C@@H]1CN(Cc2cnc3c(c2)CCO3)CCN1C[C@@H](O)C[C@@H](Cc1ccccc1)C(=O)NC1c2ccccc2C[C@H]1O (stereo not given in full) | 25 nM | 0.68 nM | 160 nM | –
6 | CC(C)(C)NC(=O)[C@@H]1CN(Cc2cc3ccccc3o2)CCN1C[C@@H](O)C[C@@H](Cc1ccccc1)C(=O)N[C@H]1c2ccccc2C[C@H]1O [L 756423] | 25 nM | 0.18 nM | 28300 nM | concentration at 8 h (in vivo): 800 nM
7 | CCOC(=O)c1cnc2oc(CN3CCN(CC(O)CC(Cc4ccccc4)C(=O)NC4c5ccccc5CC4O)C(C(=O)NC(C)(C)C)C3)cc2c1 (stereo not given) | – | – | – | IC50 [5]: 0.27 nM; IC95 [6]: 25 nM
8 | CC(C)(C)NC(=O)C1CN(Cc2cc3cccnc3o2)CCN1CC(O)CC(Cc1ccccc1)C(=O)NC1c2ccccc2CC1O (stereo not given) | 50 nM | 0.32 nM | 1170 nM | –
9 | CC(C)(C)NC(=O)[C@@H]1CN(Cc2cc3ccsc3s2)CCN1C[C@@H](O)C[C@@H](Cc1cccnc1)C(=O)N[C@H]1c2ccccc2C[C@H]1O | 6 nM | – | – | –
10 | CC(C)(C)NC(=O)[C@@H]1CN(Cc2cccnc2)CCN1C[C@@H](O)C[C@@H](Cc1ccccc1)C(=O)N[C@H]1c2ccccc2C[C@H]1O | 50 nM | – | – | –
11 | CC(C)(C)NC(=O)[C@@H]1CN(Cc2cc3cnccc3o2)CCN1C[C@@H](O)C[C@@H](Cc1ccccc1)C(=O)NC1c2ccccc2C[C@H]1O (stereo not given in full) | 6 nM | 0.22 nM | – | –
12 | CSc1ncccc1CN1CCN(C[C@@H](O)C[C@@H](Cc2ccccc2)C(=O)NC2c3ccccc3C[C@H]2O)[C@H](C(=O)NC(C)(C)C)C1 (stereo not given in full) | 15.6 nM | 0.26 nM | – | –
13 | CC(C)(C)NC(=O)C1CN(Cc2c[nH]c3ccccc23)CCN1CC(O)CC(Cc1ccccc1)C(=O)NC1c2ccccc2CC1O (stereo not given) | 50 nM | 1.7 nM | – | –
14 | CC(C)(C)NC(=O)[C@@H]1CN(Cc2cc3ccncc3o2)CCN1C[C@@H](O)C[C@@H](Cc1ccccc1)C(=O)NC1c2ccccc2C[C@H]1O (stereo not given in full) | 12.5 nM | 0.39 nM | 36500 nM | –
15 | Cc1c(CN2CCN(CC(O)CC(Cc3ccccc3)C(=O)NC3c4ccccc4CC3O)C(C(=O)NC(C)(C)C)C2)oc2ccccc12 (stereo not given) | – | – | 408 nM | IC50 [5]: 0.11 nM; IC95 [6]: 25 nM
16 | CC(C)(C)NC(=O)[C@@H]1CN(Cc2cnc3occc3c2)CCN1C[C@@H](O)C[C@@H](Cc1ccccc1)C(=O)N[C@H]1c2ccccc2C[C@H]1O | 6 nM | 0.35 nM | 15000 nM | concentration at 8 h (in vivo): 9430 nM
17 | CC(C)(C)NC(=O)[C@@H]1CN(Cc2nc3ccccc3[nH]2)CCN1C[C@@H](O)C[C@@H](Cc1ccccc1)C(=O)NC1c2ccccc2C[C@H]1O (stereo not given in full) | 200 nM | 0.47 nM | – | –
18 | CC(C)(C)NC(=O)C1CN(Cc2cc3cc(CO)cnc3o2)CCN1CC(O)CC(Cc1ccccc1)C(=O)NC1c2ccccc2CC1O (stereo not given) | – | – | – | IC50 [5]: 0.18 nM; IC95 [6]: 62.5 nM
19 | Cc1ccc(CN2CCN(C[C@@H](O)C[C@@H](Cc3ccccc3)C(=O)NC3c4ccccc4C[C@H]3O)[C@H](C(=O)NC(C)(C)C)C2)cn1 (stereo not given in full) | 100 nM | 0.62 nM | – | logP [2]: 2.14
20 | CC(C)(C)NC(=O)[C@@H]1CN(Cc2cnc3ccoc3c2)CCN1C[C@@H](O)C[C@@H](Cc1ccccc1)C(=O)NC1c2ccccc2C[C@H]1O (stereo not given in full) | 3 nM | 0.17 nM | 9720 nM | concentration at 8 h (in vivo): 1550 nM
21 | Cc1nn(C)c2ncc(CN3CCN(C[C@@H](O)C[C@@H](Cc4ccccc4)C(=O)NC4c5ccccc5C[C@H]4O)[C@H](C(=O)NC(C)(C)C)C3)c(Cl)c12 (stereo not given in full) | – | – | – | IC50 [5]: 0.14 nM; IC95 [6]: 12.5 nM
22 | CC(C)(C)NC(=O)C1CN(Cc2csc3ncccc23)CCN1CC(O)CC(Cc1ccccc1)C(=O)NC1c2ccccc2CC1O (stereo not given) | – | – | 230 nM | IC50 [5]: 0.2 nM; IC95 [7]: 6 nM
23 | CC(C)(C)NC(=O)C1CN(Cc2ccc3occc3c2)CCN1CC(O)CC(Cc1ccccc1)C(=O)NC1c2ccccc2CC1O (stereo not given) | 100 nM | 1.7 nM | – | –
24 | COc1ncccc1CN1CCN(C[C@@H](O)C[C@@H](Cc2ccccc2)C(=O)NC2c3ccccc3C[C@H]2O)[C@H](C(=O)NC(C)(C)C)C1 (stereo not given in full) | 12 nM | 1.1 nM | 515 nM | logP [2]: > 3.84
25 | Cc1nn(C)c2ncc(CN3CCN(C[C@@H](O)C[C@@H](Cc4ccccc4)C(=O)NC4c5ccccc5C[C@H]4O)[C@H](C(=O)NC(C)(C)C)C3)cc12 (stereo not given in full) | – | – | 190 nM | IC50 [5]: 0.35 nM; IC95 [6]: 6 nM
26 | CC(C)(C)NC(=O)[C@@H]1CN(Cc2ccc(Cl)nc2)CCN1C[C@@H](O)C[C@@H](Cc1ccccc1)C(=O)NC1c2ccccc2C[C@H]1O (stereo not given in full) | 12 nM | 0.49 nM | – | logP [2]: > 3.84
27 | CC(C)(C)NC(=O)[C@@H]1CN(Cc2cnc3ccccc3c2)CCN1C[C@@H](O)C[C@@H](Cc1ccccc1)C(=O)NC1c2ccccc2C[C@H]1O (stereo not given in full) | 25 nM | 0.14 nM | – | –
28 | CC(C)(C)NC(=O)[C@@H]1CN(Cc2cnc3occc3c2Cl)CCN1C[C@@H](O)C[C@@H](Cc1ccccc1)C(=O)NC1c2ccccc2C[C@H]1O (stereo not given in full) | 15.6 nM | 0.25 nM | 3940 nM | concentration at 8 h (in vivo): 2060 nM
